Source: patent US10458916B2, “Rapid tests for the detection of inhibitors of enzymes and human exposure to the same” (priority 2011, dated 2019)

Assays:
AChE [1] = biological target: T1, AChE (Electrophorus electricus, UniProt O42275); experiment: Rapid ticket test for AChE inhibitors with lyophilized AChE and NMI substrate discs, hue ratio by reader; details: without oxidation
Description: Filter discs ( 3/16″ diameter) of porous matrix Surewick Sample Pad C248 SA3J035V06 (Millipore). were punched from sheets using a manual punch and die.
N-methyl indoxyl (NMI) acetate (100 mg, Sigma-Aldrich) was dissolved in 100 mL 200 proof (100%) USP ethyl alcohol (Sigma-Aldrich) for a final concentration of 1 mg/mL and added to the beaker containing the filter pads. The filter discs were mixed gently with a spatula for five minutes. The discs were then carefully removed from the solution and spread out on a polystyrene sheet and dried at 45° C. for two hours. The filter discs were then removed from the oven and stored in a resealable plastic bag with desiccant. […]
The tickets were allowed to react for 15 minutes at room temperature and then inserted into the handheld fluorescence reader comprised of low light color cameras, 400 nm UV LED and custom color analysis software (FIG. 2). Enzyme inhibition was detected by the difference in the hue measurement of the Test Sample compared to the negative control (FIG. 4). The reader calculates a ratio of the hue measured in the test sample well to the hue measured in the negative control well.
Analysis was alternatively performed by visual observation of the ticket using a 400 nm UV LED flashlight (FIGS. 7 and 8). Visually, inhibition was detected directly based on the decrease in fluorescence of the test sample compared to the negative control.

[2] = biological target: T2, cholinesterase in human plasma (Homo sapiens, UniProt P06276); experiment: Detection of cholinesterase inhibition in spiked human plasma on the NMI ticket; format: biochemical; details: human plasma pool spiked to final 100 ppm oxamyl, incubated overnight (22 hours) at room temperature; control zone unspiked pool
T2 construct: from tissue; host or cells: human plasma pool

AChE [3] = biological target: T1, AChE; experiment: Effect of heating the AChE reaction vials on time of detection of a positive sample; format: biochemical, eel; set-up: purchased Sigma-Aldrich; details: 0.1 ppm oxamyl in water; for Detection result, Heated: heating block 40° C.; for Detection result, Not Heated: room temperature (21° C.)
Description: Water obtained from reverse osmosis treatment was spiked with 0.1 ppm oxamyl, a carbamate pesticide. The pesticide-contaminated sample was tested using the procedure described in Example 4. Two sets of two reagent vials containing AChE were opened. To the first vial of each set was added 1 mL of the test sample containing pesticide. To the second vial of each set was added 1 mL of a negative control water. All vials were thoroughly mixed. One set of vials was placed in a heating block set at 40° C., while the other set of vials was allowed to stand at room temperature (21° C.). From each set of vials, 50 μL was sampled at 5, 10, 15, and 20 minutes and transferred to corresponding reaction zones in test tickets. After 15 minutes incubation, the fluorescence in the reaction zones of each ticket were measured on a reader.

Carboxylesterase (CE) = experiment: Rapid ticket test with lyophilized carboxylesterase (CE) and NMI substrate discs, no sample oxidation; details: without oxidation

T1 sequence (O42275 24-633): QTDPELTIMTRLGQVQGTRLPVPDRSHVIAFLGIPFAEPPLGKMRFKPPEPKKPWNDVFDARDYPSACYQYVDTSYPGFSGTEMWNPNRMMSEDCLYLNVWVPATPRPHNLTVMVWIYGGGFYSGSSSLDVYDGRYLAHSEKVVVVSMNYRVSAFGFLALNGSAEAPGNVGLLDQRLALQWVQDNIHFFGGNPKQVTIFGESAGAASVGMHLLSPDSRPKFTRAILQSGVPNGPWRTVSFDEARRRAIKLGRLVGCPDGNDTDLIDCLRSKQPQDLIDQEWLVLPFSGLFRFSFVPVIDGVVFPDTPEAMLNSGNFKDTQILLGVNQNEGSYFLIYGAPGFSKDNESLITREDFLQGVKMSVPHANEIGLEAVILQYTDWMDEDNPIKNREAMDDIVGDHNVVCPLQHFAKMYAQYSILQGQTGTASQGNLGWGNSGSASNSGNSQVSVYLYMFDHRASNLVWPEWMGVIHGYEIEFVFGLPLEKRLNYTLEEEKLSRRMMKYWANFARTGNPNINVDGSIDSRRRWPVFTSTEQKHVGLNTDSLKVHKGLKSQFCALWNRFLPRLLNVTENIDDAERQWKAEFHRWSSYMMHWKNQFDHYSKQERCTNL
T2 sequence (P06276 29-602): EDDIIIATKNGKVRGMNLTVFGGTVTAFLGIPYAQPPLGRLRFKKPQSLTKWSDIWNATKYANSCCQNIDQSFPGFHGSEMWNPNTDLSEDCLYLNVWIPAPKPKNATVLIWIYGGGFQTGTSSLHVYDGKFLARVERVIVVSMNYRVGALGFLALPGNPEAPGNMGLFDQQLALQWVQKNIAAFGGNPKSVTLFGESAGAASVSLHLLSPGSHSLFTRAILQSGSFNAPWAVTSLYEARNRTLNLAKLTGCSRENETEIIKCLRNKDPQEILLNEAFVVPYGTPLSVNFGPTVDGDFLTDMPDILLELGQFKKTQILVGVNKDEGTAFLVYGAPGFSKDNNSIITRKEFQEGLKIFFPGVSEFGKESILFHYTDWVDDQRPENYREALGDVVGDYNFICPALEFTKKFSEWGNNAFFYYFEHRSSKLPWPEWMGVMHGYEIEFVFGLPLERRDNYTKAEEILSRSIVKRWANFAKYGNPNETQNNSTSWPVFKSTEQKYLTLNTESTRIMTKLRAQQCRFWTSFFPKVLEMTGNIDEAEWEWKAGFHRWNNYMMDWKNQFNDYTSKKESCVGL

With CNC(=O)O/N=C/C(C)(C)SC [Aldicarb, aldicarb] the “Reaction with AChE (in words)” value (AChE [1]) was “react strongly with AChE”.
In the case of CNC(=O)O/N=C(\SC)C(=O)N(C)C [Oxamyl, oxamyl], the hue ratio [2] is reported as 3.10, the “Reaction with AChE (in words)” value (AChE [1]) is reported as “react strongly with AChE” and the “Detection result, Heated” value (AChE [3]; 5 min) is reported as “positive”. For the same compound, the “Detection result, Heated” value (AChE [3]; 10 min) was “positive”, the “Detection result, Heated” value (AChE [3]; 15 min) was “positive” and the “Detection result, Heated” value (AChE [3]; 20 min) was “positive”. For the same compound, the “Detection result, Not Heated” value (AChE [3]; 5 min) was “negative”, the “Detection result, Not Heated” value (AChE [3]; 10 min) was “negative” and the “Detection result, Not Heated” value (AChE [3]; 15 min) was “positive”. The “Detection result, Not Heated” value (AChE [3]; 20 min) was “positive”.
COP(N)(=O)SC (stereo not shown) [Methamidophos, methamidophos] was tested, and the “Reaction with CE compared with AChE (in words)” value (Carboxylesterase (CE)) was “react more strongly with CE than with AChE”.
In the case of COP(=S)(OC)Oc1ccc([N+](=O)[O-])cc1 [Methyl Parathion, methyl parathion], the “Reaction with CE compared with AChE (in words)” value (Carboxylesterase (CE)) is reported as “react more strongly with CE than with AChE”.
